Reference: patent publication US12251427B2, “Reduced oxygen carriers and their use for the treatment of carboxyhemoglobinemia” (priority 2016, dated 2025)

Tests used:
[1] = cited from earlier work; for Kd: CO; for kon: rate of CO binding; for koff: rate of CO dissociation
LV homogenate = assay: Cardiac tissue respiration, Clark-type oxygen electrode, LV homogenate; parameters: species or system rat
Method: Mitochondrial respiration was measured before and after CO gas exposure in a Clark-type oxygen electrode respirometry system. The effects of infusion of both reduced hemoglobin and myoglobin were evaluated. Fresh liver was collected from a normal rat, and mitochondria were isolated through differential centrifugation. For left ventricle (LV) tissue, fresh LV was collected from a normal rat and then homogenized. The resulting mitochondria and LV tissue was put into the Clark-type electrode air tight reaction chamber, then substrates (succinate (mitochondria) or malate and pyruvate (LV) and ADP) were added. Mitochondria respired to 0% oxygen and then the system was reoxygenated with a pipetted injection of room air. Mitochondria respired back down to the desired 02 concentration. […]
CO poisoning has long term effects on patients, and one theory is the poisoning of mitochondria leads to generation of increased reactive oxygen species (ROS) through the inhibition of complex IV of the electron transport chain. A model to measure the amount of inhibition produced by CO exposure and quantify it through respiratory rates was developed. In a Clark electrode, the oxygen respiration of isolated mitochondria from rat livers and left ventricle (LV) homogenate was measured, with the addition of the substrates succinate and ADP to measure maximal respiration. […]

[2] = system: isolated liver mitochondria; assay: Mitochondrial respiration, Clark-type oxygen electrode, isolated liver mitochondria; parameters: species or system rat; details: for reduction of respiration: tissue not specified
Method: Mitochondrial respiration was measured before and after CO gas exposure in a Clark-type oxygen electrode respirometry system. The effects of infusion of both reduced hemoglobin and myoglobin were evaluated. Fresh liver was collected from a normal rat, and mitochondria were isolated through differential centrifugation. For left ventricle (LV) tissue, fresh LV was collected from a normal rat and then homogenized. The resulting mitochondria and LV tissue was put into the Clark-type electrode air tight reaction chamber, then substrates (succinate (mitochondria) or malate and pyruvate (LV) and ADP) were added. Mitochondria respired to 0% oxygen and then the system was reoxygenated with a pipetted injection of room air. Mitochondria respired back down to the desired 02 concentration. At this point, CO was added, either in gas form or saturated PBS solution. The system was then reoxygenated, and respiration occurred down to 0%. These rates of respiration were compared with pre-CO exposure. The reason for the first reoxygenation step was to more equally compare rates of mitochondria that have experienced some hypoxia, which can damage their function. After this was completed, CO scavenging agents were added, the system was reoxygenated and this final rate of respiration was compared both to pre-CO and post-CO respiration.
CO was then infused, the system was reoxygenated, and rates of respiration were compared. After respiration to 0% 02, myoglobin was infused, the system was reoxygenated and the rates were compared.
CO poisoning has long term effects on patients, and one theory is the poisoning of mitochondria leads to generation of increased reactive oxygen species (ROS) through the inhibition of complex IV of the electron transport chain. A model to measure the amount of inhibition produced by CO exposure and quantify it through respiratory rates was developed. In a Clark electrode, the oxygen respiration of isolated mitochondria from rat livers and left ventricle (LV) homogenate was measured, with the addition of the substrates succinate and ADP to measure maximal respiration. […] This effect was stronger in more hypoxic states, consistent with the known competition between CO and O2 for binding at the heme in cytochrome c oxidase (62% reduction in hypoxia versus ˜50% in normoxia).

[3] = Safety of oxygen carriers in healthy mice; format: in vivo; details: for tolerability of infusion: retro-orbital injection, 8-12 mM, observed for 48 hours; for blood chemistries: serum at 48 hours; for hematology profile: whole blood at 48 hours
Method: Healthy mice were anesthetized with 3% isoflurane gas and myoglobin and hemoglobin were injected into the retro-orbital space. […] At 48 hours, the animals were sacrificed, their serum was analyzed for blood chemistries and whole blood was tested for complete blood count.

[4] = system: mice exposed to 30,000 ppm (3%) CO gas; assay: Severe CO poisoning mouse model: survival and hemodynamics; format: in vivo; details: for effect on hemodynamic collapse (heart rate, mean arterial blood pressure) induced by CO: infusion after 4.5 minutes of 3% CO; for mortality: 3% CO 4.5 minutes
Method: To establish a model for cardiovascular and mortality end points, tracheally intubated, ventilated, anesthetized mice were exposed to 30,000 ppm (3%) CO gas, with 21% oxygen and 1.5% isoflurane for 4.5 minutes. Mice were surgically instrumented with placement of jugular venous (for infusion of drug) and carotid arterial (for blood pressure and heart rate monitoring) catheters. In this model, there was 88.2% (15/17) mortality in a group infused with 300 μL of PBS post exposure, while all mice that received an infusion of 11 mM myoglobin survived (0% mortality; n=5). Survival of mice infused with myoglobin was due to the reversal in hemodynamic collapse and bradycardia induced by CO (FIG. 5).
(§1) Tracheally intubated, ventilated, anesthetized mice were exposed to 30,000 ppm (3%) CO gas, with 21% oxygen and 1.5% isoflurane for 4.5 minutes. Mice were surgically instrumented with placement of jugular venous (for infusion of drug) and carotid arterial (for blood pressure and heart rate monitoring) catheters. In this model, all mice that received PEG-Hb (n=3) survived. The concentration infused was 10 mM at approximately 200 to 250 microliters volume.

HbCO [5] = assay: Severe CO poisoning mouse model: HbCO level by spectrometry; format: in vivo, mice
Method: To establish a model for cardiovascular and mortality end points, tracheally intubated, ventilated, anesthetized mice were exposed to 30,000 ppm (3%) CO gas, with 21% oxygen and 1.5% isoflurane for 4.5 minutes. Mice were surgically instrumented with placement of jugular venous (for infusion of drug) and carotid arterial (for blood pressure and heart rate monitoring) catheters.
(§2) Through the jugular venous catheter, the HbCO level was sampled using spectrometry. […] Mouse half-life for CO is much faster than for humans.
as §1, with “In this model, all mice that received PEG-Hb (n=3) survived.” left out
as §2

HbCO [6] = assay: In vitro model of CO poisoning: CO scavenging from HbCO / carboxylated RBCs; format: biochemical
Method: FIGS. 4A-4C are graphs showing the in vitro binding of CO from hemoglobin by wild type equine myoglobin. PBS or myoglobin (100 μL) was infused into a solution containing carboxylated red blood cells in the presence of 5 mM sodium dithionite at 37° C. Samples were taken from the reaction mixture at several time points and the RBCs were separated from the supernatant (containing the Mb) by centrifugation. The amount of HbCO/MbCO in each fraction was determined by UV-vis spectroscopy. (FIG. 4A) Carboxylated RBCs mixed with PBS. (FIG. 4B and FIG. 4C) Two sample experiments where different amounts of carboxylated RBCs were mixed with Mb. […]
Oxygenated or deoxygenated myoglobin (Mb) was prepared following the same procedure as that described for the experiments with pure Hb. In some experiments, after initiating the reaction, red cells were separated from Mb to measure absorbance spectra. […] Hb absorbance in the lysed RBC solution was measured with the Cary 50 spectrophotometer in a 1 cm path length cuvette. This cycle was repeated six times, each 1.5-5 minutes, giving six absorbance measurements of the Hb. […] The time when absorbance of hemoglobin was measured in the reaction was assumed to be the time elapsed after injection of Mb to 15 or 30 seconds after the start of centrifugation (for 30 or 60 second centrifugation durations, respectively). […]

Molecule: Human Hb (beta subunit, T-state): human hemoglobin beta subunit, T-state
- Kd [1]: 3800 nM
- kon [1]: 50000 M⁻¹ s⁻¹
- koff [1]: 0.19 s⁻¹

Molecule: Human Hb (alpha subunit, R-state): human hemoglobin alpha subunit, R-state
- Kd [1]: 2 nM
- kon [1]: 6e+06 M⁻¹ s⁻¹
- koff [1]: 0.012 s⁻¹

Molecule: Human Hb (beta subunit, R-state): human hemoglobin beta subunit, R-state
- Kd [1]: 0.946 nM
- kon [1]: 7.4e+06 M⁻¹ s⁻¹
- koff [1]: 0.007 s⁻¹

Molecule: [C-]#[O+] [CO, carbon monoxide]
- decrease of respiration from pre-CO (maximal) respiration (LV homogenate; CO gas versus air): 75.6%
- decrease of respiration from pre-CO (maximal) respiration ([2]; CO gas versus room air): 60.5%
- reduction of respiration ([2]; hypoxia): 62%
- reduction of respiration ([2]; normoxia): ~50%

Molecule: hemoglobin: hemoglobin, natural oxygen carrier, infused in reduced (deoxy) form as CO scavenger
- increase of respiration from the CO inhibited rate ([2]; 0.5 equimolar, after CO gas): 95%
- tolerability of infusion [3]: well tolerated
- blood chemistries [3]: normal kidney and liver function
- hematology profile [3]: only a slight decline in platelets
- survival ([4]; infused with <4 mM): died
- survival ([4]; infused with ≥4 mM): all survived
- effect on hemodynamic collapse (heart rate, mean arterial blood pressure) induced by CO [4]: reversed

Molecule: Human Hb (alpha subunit, T-state): human hemoglobin alpha subunit, T-state
- Kd [1]: 1750 nM
- kon [1]: 120000 M⁻¹ s⁻¹
- koff [1]: 0.21 s⁻¹

Molecule: PEG-Hb: surface conjugation of polyethylene glycol to human hemoglobin; artificial oxygen carrier
- HbCO level (HbCO [5]; five minutes after infusion, Example 9): 66%
- HbCO level (HbCO [5]; ten minutes after treatment, Example 9): 62%
- survival ([4]; 10 mM, approximately 200 to 250 microliters, n=3): survived
- effect on hemodynamic collapse (heart rate, mean arterial blood pressure) induced by CO [4]: restored

B1: Equine Myoglobin: wild type equine myoglobin, natural oxygen carrier, used in reduced (deoxy) form as CO scavenger (protein, UniProt P68082 2-154, looked up)
Myoglobin: GLSDGEWQQVLNVWGKVEADIAGHGQEVLIRLFTGHPETLEKFDKFKHLKTEAEMKASEDLKKHGTVVLTALGGILKKKGHHEAELKPLAQSHATKHKIPIKYLEFISDAIIHVLHSKHPGDFGADAQGAMTKALELFRNDIAAKYKELGFQG
modifications: deoxy form
notes: wild type equine myoglobin, natural oxygen carrier, used in reduced (deoxy) form as CO scavenger
- HbCO level (HbCO [5]; five minutes after infusion, Example 4): 65.04%
- HbCO level (HbCO [5]; ten minutes after treatment, Example 4): 52.8%
- HbCO reduced, CO bound by myoglobin (HbCO [6]; 100% HbCO, anaerobic, added in a 1:1 ratio): more than half
- HbCO concentration reduced (HbCO [6]; added in deficit: 110.8 μM HbCO versus 85.3 μM deoxy-myoglobin): one third
- increase of respiration from the CO inhibited rate (LV homogenate; 0.5 equimolar, after CO gas): 199%
- tolerability of infusion [3]: well tolerated
- blood chemistries [3]: normal kidney and liver function
- hematology profile [3]: only a slight decline in platelets
- survival ([4]; concentration greater than 11 mM, n=10): 100%
- survival ([4]; concentrations less than 11 mM, n=4): 0%
- concentration needed to reverse the hemodynamic collapse induced by severe CO poisoning ([4]; infused concentration): greater than 11 mM
- effect on hemodynamic collapse (heart rate, mean arterial blood pressure) induced by CO [4]: reversal
- effect on hemodynamic collapse (heart rate, mean arterial blood pressure) induced by CO ([4]; listed as reduced myoglobin): restoration
- mortality ([4]; infusion of 11 mM, n=5): 0%
- mortality ([4]; infusion of 300 μL of 11.5 mM reduced form): 0%
- affinity for CO relative to oxygen ([1]; CO versus O2): 60 fold
- Kd [1]: 68.8 nM
- kon [1]: 510000 M⁻¹ s⁻¹
- koff [1]: 0.035 s⁻¹
